# According to ChEMBL document CHEMBL5661943, “ASAP - In vitro antiviral effect” (2024):
# Tests used:
# dengue virus type 2 [1] = test: Functional CPE-based assay to measure dose dependent changes in antiviral-drug inhibitory efficacy against Dengue virus type 2 New Guinea C in Huh7 cells. Cells are treated with antiviral candidates that are serially diluted. EC50 is reported via analysis of MTT/MTS assay as a readout of CPE. The assay has been performed by National Institute of Allergy and Infectious Diseases.; format: organism-based, Homo sapiens; settings: Huh-7
# Zika virus [2] = test: EC50 is reported via analysis of immunofluorescence staining. The assay has been performed by Icahn School of Medicine at Mount Sinai.; format: functional, organism-based, Chlorocebus sabaeus, VeroE6/TMPRSS2; settings: for EC90: Baseline response 0 %, Maximum response 100 %, P-gp concentration 2 uM, P-gp inhibitor Elacidar
# dengue virus type 2 [3] = test: (§1) Functional immunofluorescence assay to measure dose dependent changes in antiviral-drug inhibitory efficacy against Dengue virus type 2 Thailand/16681/84 in Vero E6/TMPRSS2 cells (cotreated with P-gp inhibitor, Elacridar). Cells are treated with antiviral candidates that are serially diluted, following infection, cells are fixed. EC50 is reported via analysis of immunofluorescence staining. The assay has been performed by Icahn School of Medicine at Mount Sinai.; format: organism-based, Chlorocebus sabaeus, VeroE6/TMPRSS2; settings: for EC90: Baseline response 0 %, Maximum response 100 %, P-gp concentration 2 uM, P-gp inhibitor Elacidar
# Zika virus [4] = test: as §1, with “Zika” for “Dengue”, “PRVABC59” for “type 2 Thailand/16681/84”, “cells.” for “cells (cotreated with P-gp inhibitor, Elacridar).”; format: organism-based, Chlorocebus sabaeus
# dengue virus type 2 [5] = test: as §1, with “cells.” for “cells (cotreated with P-gp inhibitor, Elacridar).”; format: organism-based, Chlorocebus sabaeus
# dengue virus type 2 [6] = test: Functional assay to measure dose dependent changes in antiviral-drug inhibitory efficacy against Dengue virus type 2 New Guinea C in Vero E6 miRFP670 cells (cotreated with P-gp inhibitor, CP100356). Cells are treated with antiviral candidates that are serially diluted, following infection, cells are fixed. EC50 is reported via analysis of fluorescence intensity using high-content imager. The …; format: organism-based, Chlorocebus sabaeus, Vero C1008; settings: Dengue virus
compound,measurement,setting,value
CCCCCC(=O)N[C@H](C(=O)NCc1cccc(CN)c1)c1ccc(OCc2ccccc2)cc1,EC50,dengue virus type 2 [1],> 18 µM
CCCCCC(=O)N[C@H](C(=O)Nc1ccc2[nH]ncc2c1)c1ccc(OCc2ccccc2)cc1,EC50,dengue virus type 2 [1],6.2 µM
CCCCCC(=O)N[C@H](C(=O)Nc1ccc(C(N)=O)cc1)c1ccc(OCc2ccccc2)cc1,EC50,dengue virus type 2 [1],> 32 µM
NCc1ccc(-c2ncc(OCC3CCNCC3)nc2-c2ccc(C3CCOCC3)cc2)cc1,EC50,dengue virus type 2 [1],> 32 µM
CCCCCC(=O)N[C@H](C(=O)N1CCCCC1)c1ccc(OCc2ccccc2)cc1,EC50,dengue virus type 2 [1],> 19 µM
O=C(Nc1cc(Cl)cc(C(=O)Nc2ccc3c(c2)CNC3)c1)OCc1ccccc1,EC90,"Zika virus [2]; Hill slope -10.107, Maximum measured 106.671 %, Minimum measured 12.006 %, R squared 0.759",> 5.56 µM
same,EC50,"Zika virus [2]; Zika virus, VeroE6/TMPRSS2",> 3.33 µM
same,EC90,"Zika virus [2]; Zika virus, VeroE6/TMPRSS2, Hill slope 0.615, Maximum measured 150.152 %, Minimum measured 64.245 %, R squared 0.072",> 3.33 µM
same,EC50,Zika virus [2]; veroe6/tmprss2,4.56 µM
same,EC90,"dengue virus type 2 [3]; Hill slope -0.262, Maximum measured 88.903 %, Minimum measured 51.493 %, R squared 0.387",> 5.56 µM
same,EC50,"dengue virus type 2 [3]; Dengue virus, VeroE6/TMPRSS2",> 3.33 µM
same,EC90,"dengue virus type 2 [3]; Dengue virus, VeroE6/TMPRSS2, Hill slope 0.742, Maximum measured 298.531 %, Minimum measured 53.657 %, R squared 0.04",> 3.33 µM
same,EC50,dengue virus type 2 [3]; veroe6/tmprss2,> 5.56 µM
same,EC50,Zika virus [4]; VeroE6/TMPRSS2,> 50 µM
same,EC90,"Zika virus [4]; VeroE6/TMPRSS2, Maximum measured 887.776 %, Minimum measured 72.98 %",> 50 µM
same,EC50,dengue virus type 2 [5]; VeroE6/TMPRSS2,0.61 µM
same,EC90,"dengue virus type 2 [5]; VeroE6/TMPRSS2, Baseline response 0 %, Hill slope -0.704, Maximum measured 114.373 %, Maximum response 100 %, Minimum measured 21.903 %, R squared 0.634",> 5.56 µM
same,EC50,dengue virus type 2 [6]; Vero C1008,> 50 µM
same,EC90,"dengue virus type 2 [6]; Vero C1008, Maximum measured 108.699 %, Minimum measured 64.199 %, P-gp concentration 500 nM, P-gp inhibitor CP100356",> 50 µM
NCc1cccc(NC(=O)C[C@@H](NC(=O)OCc2ccccc2)c2ccc(OCc3ccccc3)cc2)c1,EC50,dengue virus type 2 [1],> 6.1 µM
